Data taken from patent publication EP0390515A1, “Novel adenine derivatives and their use as agents for increasing crop yields” (MITSUBISHI GAS CHEMICAL COMPANY, INC., priority 1989, dated 1990).

System: leaf of wheat
Experiment: Absorption from the surface of the leaf of wheat and translocation (length of green portion)
Assay type: cell-based, wheat [var.: Yukichabo (Triticum astivum)]
Details: for The length of the green portion (mm) (average in 10 leaves): 10 µl in 0.2% Tween 80 on centre of wheat leaf section, 25°C, 5 days, dark
Experimental: In the same manner as in the above Example 8 test (1), wheat seedlings were grown to a height of 12 - 13 cm and a portion was cut off from tle region 4 cm from the tip of the first true leaf and this leaf section was used for this test.
The bottom of a Petri dish 9 cm in diameter was covered with a sheet of circular filter paper which was wetted with 2.5 ml of distilled water. A slide glass was put thereon and ten of the leaf sections were arranged on this slide glass with the upper surface of the leaf being uppermost. On the center of the leaf sections was put 10 µl of the solution prepared by dissolving the candidate compound or benzyladenine in a 0.2% aqueous solution of Tween 80 at a given concentration. The Petri dish was covered and left at 25°C for 5 days in the dark. In the part where the candidate solution was absorbed and translocated around the position on which the solution was put, the length of the portion where chlorophyll was retained, namely, the length of the green portion was measured. […]

Structure (SMILES) | The length of the green portion (mm) (average in 10 leaves) (0.1 mg/l) | The length of the green portion (mm) (average in 10 leaves) (1.0 mg/l) | The length of the green portion (mm) (average in 10 leaves) (10 mg/l) | green portion compared with benzyladenine (absorbability and translocation) (at the same concentration, result in words)
c1ccc(CNc2ncnc3nc[nH]c23)cc1 [Benzyladenine, 6-benzylaminopurine, reference compound] | 9.6 | 14.2 | 16.9 | 
CON(C)CCNc1ncnc2nc[nH]c12 [MAED, N⁶-[2-(N-methoxy-N-methylamino)ethyl]adenine] | 9.9 | 19.8 | 28.8 | expanded the green portion in more widely than benzyladenine
